Measurements reported in patent US8334413B2, “Topical compositions and methods for epithelial-related conditions” (Signum Biosciences, Inc., priority 2004, dated 2012).

What was measured:
mouse ear [1] = assay: AFC in acetone alone, mouse ear edema (irritancy); type: in vivo, mice; conditions: topical, dose up to 32 mg/20 μl, 5.5 hours
Description: The AFC inventive compositions were spread evenly with a pipette tip. Each contralateral ear was treated with only acetone in the same manner. The mice then were returned to their cages. After 5.5 hours, mice were sacrificed and 6 mm punches were taken from each ear and weighed. Edema response was expressed as the percent increase in the treated ear's weight over the untreated (acetone, vehicle only) ear.

TPA-induced edema = assay: TPA-induced edema, murine ear acute contact irritation model; type: in vivo, mice; conditions: 2 μg TPA/20 μl acetone, AFC 15 min later, topical, 5.5 hours
Description: In order to assess the effects of the inventive composition on TPA-induced edema, 2 μg of TPA in 20 μl acetone was applied with the aid of a micropipetter onto both ears of each of 6 mice. The mice were returned to their cages. […] 20 μl of an acetone vehicle was applied similarly to the left ear of each mouse as an internal negative control. After treatment, the mice were returned to their cages for 5.5 hours. The mice were sacrificed by cervical dislocation. The ears were immediately removed at their base and a 6 mm diameter punch biopsy was taken from the center of each ear. The ear punch was weighed on an analytical balance for edema measurements as described above.

TPA-induced MPO activity [2] = assay: TPA-induced neutrophil infiltration, MPO assay; type: in vivo, Swiss Webster male mice
Description: Neutrophil-infiltration Assay: Swiss Webster male mice (n=6) were treated with 1 μg/20 μl of TPA as described above in order to assess whether or not TPA induced neutrophil infiltration. Acetone was used as a control. TPA was administered as described above. The mice were returned to their cages for 24 hrs to allow neutrophil infiltration, then sacrificed by cervical dislocation. The ears were immediately removed for punch biopsy, and punches were fixed for subsequent histological analysis and MPO enzymatic assay.
MPO Assay: This assay measures myeloperoxidase, (“MPO”) which is packaged in the primary granules of mature granulocytes including the neutrophil. Thus, the amount of MPO in the ear is proportional to the number of infiltrating neutrophils.
MPO enzyme activity of the ears was assayed using the technique detailed by Griffiths and coworkers (1988). To conduct the assay, each ear was homogenized in 1.0 ml of cetyltrimethylammonium bromide buffer for 5 sec using a Pro 200 tissue blender (Pro Scientific, Inc., Oxford, Conn.) at setting 5. These samples were then centrifuged for 5 minutes at 15,000 rpm in a 5415 Eppendorf microcentrifuge. Triplicate 20 microliter aliquots of supernatant were added to 200 microliters of reaction mixture (1.25 ml 1M Potassium Phosphate, 4.175 mg o-dianisidine dihydrochloride and 5 μl of 1% peroxide in a final volume of 25 ml). Absorbance at 450 nm was then measured at room temperature at three 60 second intervals using Bio-Kinetics Reader EL 312E (Bio-Tek Instruments). Activity, which was determined by a Bradford assay of the homogenate (BioRad Protein Assay, BioRad Laboratories, Inc. Hercules, Calif.) was expressed as units MPO per mg tissue +/−standard error.
(§1) Two micrograms of TPA in 20 μl of acetone was applied onto both ears of each mouse to induce neutrophil infiltration. […] After 24 hours, the mice were sacrificed.

[3] = test system: TPA-induced neutrophil infiltration; assay: TPA-induced neutrophil infiltration, neutrophil counting assay (histology); type: in vivo, mice; conditions: 24 hours
Description: Neutrophil Counting Assay: Ear punches buffered in 10% formalin in PBS at ambient temperature for a minimum of 24 hrs. were sectioned and stained with Hematoxilin & Eosin (“H&E”). The number of neutrophils, identified by their multilobular nuclei, in 6 randomly 100× magnified fields distributed along the length of the ear were manually counted. The results are expressed as the average number per field for each ear.
as §1

TPA-induced MPO activity [4] = assay: TPA-induced MPO activity at different application times; type: in vivo, mice; conditions: 1 μg/20 μl TPA; 1 mg/20 μl AFC at various times before and after TPA
Description: In this example, both ears of six mice were treated with a 1 μg/20 μl dose of TPA in acetone.

TPA-induced MPO activity [5] = assay: TPA-induced MPO activity in the contralateral vehicle-treated ear (systemic effect); type: in vivo, mice
Description: These included dexamethasone, a steroid, and indomethasone, a non-steroid anti-inflammatory drug, which targets cycloxygenases. The action of AFC in this model was, therefore, compared to that of dexamethasone and indomethasone. Each of these agents were tested using the same protocols used to test AFC.

TPA-induced erythema = assay: TPA-induced erythema, mouse ear; type: in vivo; conditions: 1 μg/20 μl TPA, 1 mg/20 μl AFC after 1 hour, photo 23 hours later
Description: For this example, both ears of a mouse were treated with a 1 μg/20 μl dose of TPA in acetone. […] The photo was taken 23 hours later using a Nikon D70 digital camera.

human skin = assay: SDS irritant patch test on human skin, AFC pre-applied; type: in vivo; conditions: 140 mM AFC aqueous formulation pre-applied
Description: An irritant was applied to the middle of the upper back of a human subject using a 0.2 ml 20% SDS solution and a Hill-Top Chamber patch with Webril pad. […] Patches 1a and 2a were removed after 2 hours, while patches 1b and 2b were removed after 2 hours and 30 minutes. High levels of irritation were visible in patch sites 2a and 2b.

chronic irritation = assay: Chronic irritation by multiple TPA applications, mouse ear; type: in vivo, mice; conditions: AFC in acetone, applied 6 hr apart on days 7, 8 and 9; TPA days 0, 2, 4, 7, 9
Description: The effectiveness of the inventive compositions against established chronic irritation is assayed using a modification of the technique of Stanley P L et al., Mouse skin inflammation induced by multiple topical application 12-O-tetradeconoyphorbol-13-acetate. Skin Pharmacol. 1991, 4: p 262-271. (1991). Both ears of each mouse are treated with TPA in acetone, as above, in a series of 5 applications on the mornings of days 0, 2, 4, 7, and 9. […] Punches of the ears are taken the afternoon of the tenth day and prepared, as above, for the edema assay and the infiltration of neutrophils. Total granulocyte infiltration is assayed by measuring MPO activity. Macrophage infiltration is determined immunocytologically using the MOMA-2 antibody. Hydrocortisone, which is known to reduce inflammatory edema granulation infiltration and microphage infiltration, is used as a positive control.

[6] = test system: delayed-type hypersensitivity; assay: DNFB delayed-type hypersensitivity, mouse ear; type: in vivo, mice; conditions: AFC 0.5 hr before or 15 min after DNFB challenge, assay 5 hr later
Description: The mouse ear model, described above, is modified to assay the effect of anti-inflammatory agents in an immune based inflammation model (See Tramposch, K. M., Skin Inflammation, in In Vivo Models of Inflammation, M. L. Morgan D W, Editor. 1999, Birkhauser Verlag. p. 179-20 and Chapman, J. R., Z. Ruben, and G. M. Butchko, Histology of and quantitative assays for oxazolone-induced allergic contact dermatitis in mice. Am J Dermatopathol, 1986. 8(2): p. 130-8). In this model, a sensitizing dose of dinitrofluorobenzene (“DNFB”) 1-3% in acetone is applied topically according to a modification of the method by Back et al. (See Back, O. and T. Egelrud, Topical glucocorticoids and suppression of contact sensitivity. A mouse bioassay of anti-inflammatory effects. Br J Dermatol, 1985. 112(5): p. 539-45 and Bailey, S. C., et al., A novel contact hypersensitivity model for rank-ordering formulated corticosteroids. Inflamm Res, 1995. 44 Suppl 2: p. S162-3) to the shaved bellies of mice to elicit an immune response. Mice are challenged on day 5 with 40 μl of 0.5-1% DNFB to each ear. […] The ears are assayed for edema or neutrophil infiltration 5 hr later. Dexamethasone is used as a positive control. Five days later, the ears are challenged topically with a dose of DNFB insufficient to produce contact irritation. Simultaneously, cell infiltration studies are initiated. […]

[7] = target: membrane-associated polyisoprenoid methyl transferase (Homo sapiens, UniProt O60725); conditions: cited from earlier work
Sequence of membrane-associated polyisoprenoid methyl transferase (O60725 whole entry): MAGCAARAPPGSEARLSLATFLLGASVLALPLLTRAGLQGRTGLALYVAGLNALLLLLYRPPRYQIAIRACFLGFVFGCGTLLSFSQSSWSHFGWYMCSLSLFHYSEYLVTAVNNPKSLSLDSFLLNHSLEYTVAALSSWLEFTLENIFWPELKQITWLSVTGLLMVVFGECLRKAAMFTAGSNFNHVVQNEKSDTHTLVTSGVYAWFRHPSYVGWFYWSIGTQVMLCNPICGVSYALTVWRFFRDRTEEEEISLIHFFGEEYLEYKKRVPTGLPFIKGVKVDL

[8] = test system: neutrophil, macrophage, and platelet responses; conditions: cited from earlier work
mouse ear [9] = assay: TPA dose response, mouse ear edema; type: in vivo, Swiss Webster mice; conditions: TPA 0.25 to 1.75 μg/20 μl in acetone, topical, 5.5 hours, 6 mm ear punch
Description: Increasing concentrations of TPA dissolved in acetone were applied with the aid of a micropipetter onto the right ear of each of the five 6-8 week old, male Swiss Webster mice used in this analysis. Ten microliters were spread evenly onto the inner and outer surfaces using the pipette tip. The mice were then returned to their cages. The contralateral ear was treated only with acetone. After 5.5 hours, the mice were sacrificed and 6 mm punches were taken from each ear and weighed. Edema response was expressed as a percent increase in the treated ear's weight over the untreated ear. The dose response curve, as well as an ED50 value, was determined using the Lichtfield method (Lichtfield J T W. F., A simplified method of evaluating dose-effect experiments, Journal of Pharmacology and Experimental Therapeutics, 1948, 96: P. 99-113).

[10] = 2 μg TPA/20 μl acetone, AFC 15 min later, topical, 24 hours

CC(=O)N[C@@H](CSCC=C(C)CCC=C(C)CCC=C(C)C)C(=O)O (stereo in doubt) [AFC, N-acetyl-S-farnesylcysteine]
edema response (ear punch biopsy weight), AFC alone (mouse ear [1]): no effect
maximum reduction in TPA-induced edema (TPA-induced edema): 80%
ED50, inhibition of TPA-induced MPO activity (TPA-induced MPO activity [2]; [10]): 0.065 mg/20 μl
inhibition of TPA-induced increases in MPO activity (TPA-induced MPO activity [2]; [10]): > 80%
inflammation activity of AFC on its own in the Neutrophil-Infiltration Assay (TPA-induced MPO activity [2]; AFC alone): no inflammation activity of its own
reduction in dermal neutrophils (counted) ([3]; 1.0 mg/20 μl AFC, TPA irritation, statistically significant): 80%
neutrophils observed histologically in AFC treated ear ([3]; TPA pretreated ears, H&E): substantial reduction of neutrophils
effect on TPA-induced MPO activity versus time of application (TPA-induced MPO activity [4]): efficacy of AFC treatment prior to, simultaneous with, or after exposure of skin to TPA
MPO activity in contralateral vehicle-treated ear (systemic effect) (TPA-induced MPO activity [5]; topical, increasing concentration on the other ear, TPA on both ears): no effect
TPA-induced erythema (TPA-induced erythema): observed an effect
skin irritation at patch site 1a (human skin; 20% SDS patch removed after 2 hours): normal skin
skin irritation at patch site 1b (human skin; 20% SDS patch removed after 2 hours and 30 minutes): mild response
chronic edema (chronic irritation): reduces
neutrophil number (chronic irritation) (chronic irritation): reduces
edema (DNFB challenge) [6]: effective in reducing
neutrophil infiltration (DNFB challenge) [6]: effective in reducing
inhibition of membrane-associated polyisoprenoid methyl transferase [7]: inhibit
neutrophil, macrophage, and platelet responses in vitro [8]: block some

C[C@@H]1C[C@H]2[C@@H]3CCC4=CC(=O)C=C[C@]4(C)[C@@]3(F)[C@@H](O)C[C@]2(C)[C@@]1(O)C(=O)CO [dexamethasone]
MPO activity in contralateral vehicle-treated ear (systemic effect) (TPA-induced MPO activity [5]; mouse, in vivo): increasing inhibition of MPO activity

COc1ccc2c(c1)c(CC(=O)O)c(C)n2C(=O)c1ccc(Cl)cc1 [indomethasone]
MPO activity in contralateral vehicle-treated ear (systemic effect) (TPA-induced MPO activity [5]; mouse, in vivo): increasing inhibition of MPO activity

tetradecanoylphorbol acetate [TPA]
maximum increase in ear weight (mouse ear [9]): approximately 150 % of the acetone-treated ear
